Values quoted from earlier work as cited in the CATMoS acute toxicity set (Mansouri et al. 2021).
Several values for one entry are separate records, joined by “and”; a condition that tells them apart may be missing. Equal entries are not always repeated.

Assay: rat acute oral toxicity
Details: in vivo

SMILES | LD50
CCCCC1C(=O)NN(c2ccccc2)C1=O (stereo not drawn) | 1750 mg/kg
C1CN2CCN1CC2 | 1700 mg/kg
Nc1ccc(C(=O)Nc2ccccc2N)cc1 | 95 mg/kg
OC(CCl)COCCCCCOCC(O)CCl (stereo not drawn) | 2250 mg/kg
CC[C@@H](CO)NC(=O)[C@@H]1C=C2c3cccc4[nH]cc(c34)C[C@H]2N(C)C1 | 93 mg/kg
CCOP(=S)(OCC)Oc1cc(C)n(CC)c(=O)c1 | 7070 mg/kg
CCCSP(=O)(OCC)Oc1ccc(Cl)cc1Cl (stereo not drawn) | 320 mg/kg
FC(F)(F)C(F)(F)C(F)(F)C(F)(F)C(F)(F)C(F)(F)C(F)(F)C[n+]1ccccc1 | 1160 mg/kg
N#CC1(O)CCCCC1 | 10 mg/kg
O=c1[nH]c2ccc(Br)cc2o1 | 1000 mg/kg
CC=CCCCCCCCC(=O)OC | 3000 mg/kg
COCOC | 6420 mg/kg
CNc1nc(Cl)c(SC)c(N2CCN(C)CC2)n1 | 800 mg/kg
CC(C(=O)O)c1ccc2oc3ccccc3c(=O)c2c1 (stereo not drawn) | 720 mg/kg
CCCCOC(=O)COc1ccc(Cl)cc1C | 914 mg/kg
CCOP(=S)(OCC)OP(=S)(OCC)OCC | 5 mg/kg
CCCCCOC(CBr)c1ccc(C(C)C)cc1 (stereo not drawn) | 250 mg/kg
CCCCOP(=O)(OCCO)OCCCC | 915 mg/kg
C/[N+]([O-])=N/CO[C@@H]1O[C@H](CO)[C@@H](O)[C@H](O)[C@H]1O | 270 mg/kg
COP(=S)(OC)SCC(=O)N1CCOCC1 | 190 mg/kg
CCCCCCCCN1CCCC1=O | 2050 mg/kg
CC(c1ccccc1)N(C)C (stereo not drawn) | 420 mg/kg
Cc1cccc(N2CCN(CCC(O)c3ccc4c(c3)CCC(=O)N4)CC2)c1C (stereo not drawn) | 500 mg/kg
COC(=O)CCBr | 1600 mg/kg
CCC1C(C)=NN=C(c2ccc(OC)c(OC)c2)c2cc(OC)c(OC)cc21 (stereo not drawn) | 825 mg/kg

SMILES | LD50
CC1(NC(N)=O)CCCCC1 | 1040 mg/kg
COC(=O)C1=C(C)NC(C)=C(C(=O)O[C@@H]2CCCN(Cc3ccccc3)C2)[C@@H]1c1cccc([N+](=O)[O-])c1 (racemic) | 87.6 mg/kg
Cc1ccc(C(=O)c2ccc(CC(=O)O)n2C)cc1 | 293 mg/kg
C=CC(C)=CCCC(C)(C)O | 1700 mg/kg
O=C1c2cccc(Br)c2C(=O)C1c1ccccc1 (stereo not drawn) | 745 mg/kg
Nc1ccc(F)cc1 | 417 mg/kg
CC(c1ccc(C(F)(F)F)nc1)S(C)(=O)=NC#N (stereo not drawn) | 1000 mg/kg
NN1C(=O)CSC1=S | 2.21 mg/kg
CCOP(=O)(OCC)C(SCC)(Sc1ccccc1)P(=O)(OCC)OCC | 24 mg/kg
CC(O)c1ccccc1 (stereo not drawn) | 400 mg/kg
N#CCCNC(=O)CCl | 410 mg/kg
CCC(CC)COCCC(=O)O | 3730 mg/kg
CN1CCC(=C2c3ccccc3C(O)c3ccccc32)CC1 (stereo not drawn) | 135 mg/kg
CNC(=O)Oc1cc(C)c(NC(=O)O)c(C)c1 | 71 mg/kg
CC(=O)C(Cl)C(=O)OC(C)c1ccccc1 (stereo not drawn) | 880 mg/kg
Cc1onc2c(=O)n(-c3ccccc3)nc(-c3ccccc3)c12 | 1000 mg/kg
CC(=O)OCCCC(=O)CBr | 600 mg/kg
C=C(CCl)CCl | 150 mg/kg
Clc1ccc(CCC(Cn2ccnc2)Sc2c(Cl)cccc2Cl)cc1 (stereo not drawn) | 1720 mg/kg
CCOc1ccc(-n2c(C)nc3ccccc3c2=O)cc1 | 4800 mg/kg
OC[C@@H](O)[C@H]1O[C@@H]2O[C@H](C(Cl)(Cl)Cl)O[C@@H]2[C@H]1O | 400 mg/kg
CCCCOC(=S)SC(=S)OCCCC | 1400 mg/kg
CN1C(=O)C2C=CC1c1ccccc12 (stereo not drawn) | 806 mg/kg
c1ccc(-c2ccc(C(c3ccccc3)n3ccnc3)cc2)cc1 (stereo not drawn) | 1460 mg/kg
CCN(Cc1ccc(Cl)nc1)/C(=C/[N+](=O)[O-])NC | 1580 mg/kg

SMILES | LD50
CC(c1ccccc1)c1ccc(O)cc1O (stereo not drawn) | 500 mg/kg
CC(C)(S)C(N)C(=O)O (racemic) | 365 mg/kg
CC(=O)Nc1cc(Cl)ccc1Cl | 4100 mg/kg
CCCOP(=S)(OCCC)SCC(=O)N1CCCCC1C (stereo not drawn) | 324 mg/kg
Cn1c(=O)c2c(ncn2CC(O)CN2CCN(CCCSc3ccccc3)CC2)n(C)c1=O (stereo not drawn) | 2100 mg/kg
CC(C)=C1CCC(C)CC1=O (stereo not drawn) | 470 mg/kg
CC(=O)OCC(C)c1ccccc1 (stereo not drawn) | 4300 mg/kg
CCCC(C)CCOC(=O)c1ccccc1C(=O)OCCC(C)CCC (stereo not drawn) | 35500 mg/kg
CCOP(=S)(OCC)SCS(=O)CC (stereo not drawn) | 2 mg/kg
CC1CCC(=O)CC1 | 800 mg/kg
CN(C)C(=O)Nc1ccc(SC(F)(F)Cl)c(Cl)c1 | 336 mg/kg
Clc1cc2c(c(Cl)c1Cl)Oc1cc(Cl)c(Cl)c(Cl)c1O2 | 0.887 mg/kg
FC(F)(F)c1nc2c(Cl)c(Cl)c(Cl)cc2[nH]1 | 1.52 mg/kg
Fc1c(Cl)c(Cl)c2nc(C(F)(F)F)[nH]c2c1Cl | 2.39 mg/kg
CNC[C@H](O)c1ccc(O)c(O)c1 | 30 mg/kg and 24 mg/kg
CC(C)=CC1C(C(=O)Cl)C1(C)C (stereo not drawn) | 400 mg/kg
C=COCC(CC)CCCC (stereo not drawn) | 1350 mg/kg
CN1CCN(C(=O)N/N=C/c2ccc([N+](=O)[O-])o2)CC1 | 750 mg/kg
COC(=O)c1cc([N+](=O)[O-])ccc1Cl | 5360 mg/kg
COc1cc([C@@H]2c3cc4c(cc3[C@H](O[C@@H]3O[C@@H]5COC(c6ccccc6)O[C@H]5[C@H](O)[C@H]3O)[C@H]3COC(=O)[C@H]23)OCO4)cc(OC)c1OC (stereo partly drawn) | 823 mg/kg
O=C(O)c1cn(C2CC2)c2cc(Cl)c(F)cc2c1=O | 583 mg/kg
Cc1ccc(C(=O)c2cccc3c2CCC3C(=O)O)cc1 (stereo not drawn) | 244 mg/kg
CCOP(=O)(OCC)SCc1ccccc1 | 660 mg/kg
